Source: US20190275324A1, “METHOD FOR TREATING OR PREVENTING A SICKLE-CELL DISEASE AND SYMPTOMS THEREOF” (DIAVEIN, priority 2016, published 2019)

Experiments:
[1] = tested on: patients with a severe vaso-occlusive crisis associated with sickle cell disease; assay: Clinical study of VEST in combination with NSAID for relief of pain in vaso-occlusive crisis (Example 6), 10-cm VAS for pain; assay type: in vivo, human; conditions: all groups also given Perfalgan and Tramadol
Source text: The objective of the clinical study was to assess the efficacy of VEST in combination with non-steroid anti-inflammatory drugs to manage pain in adult and paediatric patients experimenting a severe vaso-occlusive crisis associated with sickle cell disease.
27 patients suffering from a sickle-cell disease and experimenting a severe vaso-occlusive crisis, with a pain score of at least 6 in the visual analog scale for pain (VAS pain), were enrolled in the study. The enrolled patients comprised 16 adults (of 19 to 35 years) and 11 children (of 8 to 17 years). 8 patients were of HbSS genotype, 19 patients were of HbSC genotype. The enrolled patients comprised 18 male subjects and 9 female subjects.
After their admission at the hospital, 15 patients received pain killer (Perfalgan) and (Tramadol) drugs and the NSAID Diclofenac and were subjected to VEST treatment for 4 hours, with two electrodes under each calf and two electrodes under each arm of the patient.
2 patients received Pain killer (Perfalgan) and (Tramadol) drug and were subjected to VEST treatment for 4 hours, with two electrodes under each calf and two electrodes under each arm of the patient. These patients were not administered with any NSAID. […]
Pain change in each patient was assessed with a 10-cm visual analog scale (VAS) for pain (e.g. as shown in FIG. 4) every two hours, during 6 hours after the beginning of VEST.

[2] = tested on: patients with acute vaso-occlusive crisis; conditions: after 4 hours; patients treated with morphine, Weiner et al.; cited from earlier work

Compound	mean pain score in VAS ([1]; after 4 hours) [cm]	mean pain score in VAS ([1]; after 6 hours) [cm]	mean pain score in VAS [2]
O=C(O)Cc1ccccc1Nc1c(Cl)cccc1Cl [NSAID alone, Diclofenac]	6	6	–
CN1CC[C@]23c4c5ccc(O)c4O[C@H]2[C@@H](O)C=C[C@H]3[C@H]1C5 [morphine]	–	–	higher than 6 cm
